Assay results published in BindingDB's records for patent US12441689 (Epivario, 2025).

Target: Acetyl-coenzyme A synthetase, cytoplasmic (Homo sapiens, UniProt Q9NR19)
Test: ACSS2 Cell-Free Activity Assay
Procedure: At the end of the reaction, Biomol Green was added for 30 minutes at RT and the activity was measured by reading the absorbance at 620 nm.

Sequence of Acetyl-coenzyme A synthetase, cytoplasmic (Q9NR19 whole entry): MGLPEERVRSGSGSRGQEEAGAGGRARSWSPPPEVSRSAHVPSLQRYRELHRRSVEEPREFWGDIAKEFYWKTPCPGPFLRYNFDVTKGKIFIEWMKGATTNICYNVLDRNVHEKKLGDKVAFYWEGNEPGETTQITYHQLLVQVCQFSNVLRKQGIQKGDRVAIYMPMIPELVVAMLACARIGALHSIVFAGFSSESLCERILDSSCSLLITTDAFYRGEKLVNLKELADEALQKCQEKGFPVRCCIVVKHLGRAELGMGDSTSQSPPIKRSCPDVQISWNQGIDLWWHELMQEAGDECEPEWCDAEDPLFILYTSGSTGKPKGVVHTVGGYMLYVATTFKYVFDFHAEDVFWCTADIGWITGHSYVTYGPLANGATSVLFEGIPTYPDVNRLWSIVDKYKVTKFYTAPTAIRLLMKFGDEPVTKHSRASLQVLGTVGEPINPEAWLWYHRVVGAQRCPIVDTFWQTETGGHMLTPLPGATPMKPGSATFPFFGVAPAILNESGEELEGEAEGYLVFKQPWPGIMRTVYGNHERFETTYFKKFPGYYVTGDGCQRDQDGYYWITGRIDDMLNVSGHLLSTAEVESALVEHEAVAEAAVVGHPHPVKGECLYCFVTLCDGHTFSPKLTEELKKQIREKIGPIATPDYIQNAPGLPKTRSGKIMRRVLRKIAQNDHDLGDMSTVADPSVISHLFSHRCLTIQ

IC50: > 100 nM
Structure (SMILES): CCC(F)(F)c1cccc(NC(=O)c2nc(-c3ccc4cc[nH]c4c3)oc2C)c1 [US12441689, Compound 106]
